Results taken from ChEMBL document CHEMBL3988442, “University of Dundee, Small-Polar-MMV Screening Library” (2021).
“And” between values parts separate entries of the source, which are not always exact repeats. Equal values may be shown once.

Experiments:
Histidine--tRNA ligase = molecular target: T1, Histidine--tRNA ligase (Leishmania infantum, UniProt A4I591); assay: Leishmania infantum Histidine tRNA synthetase (LdHisRS); type: functional
T1 sequence (A4I591 whole entry): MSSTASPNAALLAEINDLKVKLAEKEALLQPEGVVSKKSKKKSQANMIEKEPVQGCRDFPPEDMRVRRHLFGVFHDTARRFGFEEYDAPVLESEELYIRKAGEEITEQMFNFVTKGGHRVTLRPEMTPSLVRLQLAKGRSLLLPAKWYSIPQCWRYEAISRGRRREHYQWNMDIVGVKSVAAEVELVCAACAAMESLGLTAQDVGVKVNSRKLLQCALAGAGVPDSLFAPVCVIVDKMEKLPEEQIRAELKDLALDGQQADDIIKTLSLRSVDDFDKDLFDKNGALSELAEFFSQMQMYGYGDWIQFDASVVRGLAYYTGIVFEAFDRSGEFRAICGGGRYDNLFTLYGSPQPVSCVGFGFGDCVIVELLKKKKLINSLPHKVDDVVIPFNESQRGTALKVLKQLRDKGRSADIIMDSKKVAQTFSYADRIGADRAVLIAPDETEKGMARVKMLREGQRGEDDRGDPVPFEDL

[1] = microbe, parasite or virus in culture; details: Mycobacterium tuberculosis, 72 h, read-out: pIC50 (converted)
[2] = microbe, parasite or virus in culture; details: Mycobacterium tuberculosis, 96 h, read-out: pIC50 (converted)
Plasmodium falciparum = assay: Calibr Malaria Delayed Death Assay SOP; type: functional, organism-based

Structure (SMILES)	IC50 (Histidine--tRNA ligase)	also measured
Cc1csc(CN(C)C(C)C(=O)N2CCc3ccccc3C2)n1 (stereo not given)	> 100 µM	
Cc1cc(CNc2ccc3nc(C)sc3c2)no1	> 100 µM	
Cc1nnc(NCCc2coc(-c3ccc(F)cc3)n2)c(C#N)c1C	> 100 µM and 55.9 µM	
Cn1nccc1-c1ncc(-c2cc(C(=O)O)n(CC3CC3)c2)cn1	> 100 µM	
NC(=O)C1=NC2=NS(=O)(=O)c3ccccc3N2N1Cc1ccc(Cl)cc1	62.9 µM and 43.4 µM	IC50 [1]: 45.4 µM; IC50 [2]: 26.4 µM
Cc1ccsc1C(=O)Nc1cc(Br)c(=O)n(C)c1	30.3 µM and 25.3 µM	
O=C(c1cc(-c2ccco2)cs1)N1CCCC1	> 100 µM and 53 µM	IC50 [1]: 8 µM; IC50 [2]: 33 µM
CCC(C#N)NC(=O)CCCOc1cccc(C(C)=O)c1 (stereo not given)	> 100 µM	
Cn1ncc(-c2cc(-c3cccc(O)c3)nc(N)c2C#N)c1C1CC1	61.2 µM and 76.8 µM	
CCCn1nc2c(cc1=O)CN(CC1CCCCO1)CC2 (stereo not given)	33.8 µM and 42.3 µM	
COc1cc(CC(=O)Nc2cccc(C(=O)N(C)C)n2)ccc1C	24.8 µM and 36.9 µM	
COc1ccc(C2SC(C)=Nc3c2c(=O)[nH]n3C2CCCC2)cc1O (stereo not given)	> 100 µM	
Cn1cccc(NC(=O)NCc2cccc(CO)c2)c1=O	> 100 µM	
CCn1nc2c(cc1=O)CN(c1nc3ccccc3s1)CC2	62.6 µM and 73.7 µM	
Cc1c(C(=O)N2CCC(O)(CN(C)C)C2)c2cc(O)ccc2n1C (stereo not given)	> 100 µM	
O=C(CCn1ccc2cc(Br)ccc21)NCc1ccc(C(=O)O)cc1	> 100 µM and 66.9 µM	
O=C1CC2(CCN(Cc3ccc4cccc(O)c4n3)CC2)CN1	46.2 µM and 45.6 µM	
COc1ccc2c(c1)CC(NCc1cccc(OCC(N)=O)c1)CC2 (stereo not given)	17 µM and 23.6 µM	
Cc1cc(C(=O)NCC(F)(F)F)c2c(C3CCCN3)noc2n1 (stereo not given)	38.4 µM and 70 µM	
CCCc1nc(N(C)CCN2CCCCCC2)c2cnn(C)c2n1	41.4 µM and 39.5 µM	IC50 [1]: 28.3 µM; IC50 [2]: > 50.1 µM
COc1cc(CNc2cnn(C)c2)cc2c1OCCO2	> 100 µM	
O=C(c1cc(-c2ccco2)nc2c(Cl)cccc12)N1C[C@H]2CNC[C@H]2C1	48.1 µM and 51.8 µM	
Cc1cc(NC(=O)CN2CCc3nn(C)c(=O)cc3C2)no1	> 100 µM	
O=C(c1cnccn1)N1C[C@@H]2[C@@H](C1)OCC(=O)N2CC1CCCC1	> 100 µM	

Structure (SMILES)	IC50 (Histidine--tRNA ligase)	also measured
c1cc(-c2ccc3c(c2)C2(CC3)CCN(c3nncs3)CC2)ccn1	29.8 µM and 26.8 µM	
CC1=C(C#N)C(=O)NC(=O)/C1=C\c1c(C)nn(-c2ccc(C)cc2)c1O	58.7 µM and 48 µM	
CCc1ocnc1C(=O)N1CCN(c2ccc3ccccc3c2)CC1	57.4 µM and 54 µM	
CCN(C(=O)c1nc2c(s1)CCCN2Cc1ccccc1)C(C)C	22.3 µM and 17.3 µM	
CCN1C(=O)C(C#N)=C(C)/C(=C/C2=Cc3ccccc3OC2)C1=O	1.68 µM and 1.77 µM and 1.36 µM and 1.79 µM	
c1ccc(-c2cnc(CNC3CCCN(c4cccnn4)C3)o2)cc1 (stereo not given)	43.5 µM and 30.5 µM	
Cn1cnnc1C1CCCN(C(=O)c2cc(C3CC3)on2)C1 (stereo not given)	> 100 µM	
Cc1ccc(CN2C(=O)CCC2C(=O)Nc2cnn(C)c2)o1 (stereo not given)	> 100 µM and 90.1 µM	
NC(=O)C1CCCN(Cc2c(-c3ccco3)[nH]c3ncccc23)C1 (stereo not given)	67.8 µM and 46 µM	
O=C(c1ccc2[nH]ccc2c1)N1CCn2cnc(COCC3CC3)c2C1	38.4 µM and 25.7 µM	
Cc1nc(CN2CCCC2c2ccsc2)nc2ccccc12 (stereo not given)	56 µM and 44.1 µM	
CC1=Nc2c(c(=O)[nH]n2C(C)C)C(c2ccc3c(c2)n(C)c(=O)n3C)S1 (stereo not given)	> 100 µM	
Cc1noc(C)c1C(=O)N1CCC(Nc2cccnn2)CC1	> 100 µM	
CS(=O)(=O)N1CCCC(Cc2ccnc3ccncc23)CC1 (stereo not given)	21.6 µM and 22.8 µM	
COc1ccccc1N1CCC(CNCc2cccc(OC)c2OC)C1 (stereo not given)	> 100 µM	
COc1ccccc1C1(CNCc2cccc(O)c2)CCOCC1	1.13 µM and 1.34 µM (2×) and 1.43 µM	pIC50 (Plasmodium falciparum): 6.352; IC50 (Plasmodium falciparum; Plasmodium falciparum): 0.31 µM
Cn1ccnc1-c1cn(CCc2nnc(N)s2)nn1	> 100 µM	
CC(C)c1cc(NC(=O)CN2CCc3nn(C)c(=O)cc3C2)on1	> 100 µM	
Cc1noc(C)c1CN1CCc2nn(C(C)C)c(=O)cc2C1	86 µM and > 100 µM	
c1ccc(-n2ncc(CNCC3CCCN3c3cccnn3)n2)cc1 (stereo not given)	22.3 µM and 27.2 µM	
NC(=O)c1ccc(N2CCCCC2)c(NC(=O)c2ccc(F)cc2Cl)c1	71.9 µM and 52.6 µM	
O=C(c1cc(=O)n(-c2ccccc2)[nH]1)N1CCCC(c2ccn[nH]2)C1 (stereo not given)	49.3 µM and 44.5 µM	
c1cc(-c2nnc3sc(CCN4CCCC4)nn23)ccn1	> 100 µM	
